Measurements as given in US8541457B2, “Aminothiazole derivatives as human stearoyl-CoA desaturase inhibitors” (Xenon Pharmaceuticals Inc., priority 2005, dated 2013).

| SMILES | melting point |
| --- | --- |
| Cc1nc(NC(=O)Nc2ccc(Cl)cc2)sc1C(=O)NCc1ccccc1 [Example 4.2, 2-[3-(4-Chlorophenyl)ureido]-4-methylthiazole-5-carboxylic Acid Benzylamide] | > 300 °C |
| Cc1nc(NC(=O)c2ccc(-c3nn[nH]n3)cc2)sc1C(=O)NCc1ccccc1 [Example 6, 4-Methyl-2-[4-(2H-tetrazol-5-yl)benzoylamino]thiazole-5-carboxylic Acid Benzylamide] | > 300 °C |
| Cc1nc(NC(=O)c2ccccc2)sc1C(=O)NCC1CC1 [Example 7, 2-Benzoylamino-4-methylthiazole-5-carboxylic Acid Cyclopropylmethylamide] | 163 to 166 °C |
| Cc1nc(NCc2ccccc2)sc1C(=O)NCc1ccccc1 [Example 8, 2-Benzylamino-4-methylthiazole-5-carboxylic Acid Benzylamide] | 169 to 172 °C |
| Cc1nc(NC(=O)c2ccccc2)sc1C(=O)NNC(=O)c1ccccc1 [Example 9, N-(5-(2-Benzoylhydrazinecarbonyl)-4-methylthiazol-2-yl)benzamide] | 258 to 260 °C |
| Cc1nc(NC(=O)c2ccccc2)sc1C(=O)n1ccnc1 [Example 10, N-(5-(1H-Imidazole-1-carbonyl)-4-methylthiazol-2-yl)benzamide] | 228 to 231 °C |
| COc1cc(C(=O)Nc2nc(C)c(C(=O)NCc3ccccc3)s2)ccn1 [Example 13, N-Benzyl-2-(2-methoxyisonicotinamido)-4-methylthiazole-5-carboxamide] | 188 to 190 °C |
| Cc1nc(NC(=O)c2cc[nH]c(=O)c2)sc1C(=O)NCc1ccccc1 [Example 14, N-Benzyl-4-methyl-2-(2-oxo-1,2-dihydropyridine-4-carboxamido)thiazole-5-carboxamide] | 290 to 292 °C |
| Cc1nc(NC(=O)c2ccn(-c3ccccc3)c(=O)c2)sc1C(=O)NCc1ccccc1 [Example 15, N-Benzyl-4-methyl-2-(2-oxo-1-phenyl-1,2-dihydropyridine-4-carboxamido)thiazole-5-carboxamide] | 260 to 262 °C |

Results, then the molecule that gave them:

| melting point | SMILES |
| --- | --- |
| 198 to 199 °C | Cc1nc(NC(=O)c2ccccc2)sc1C(=O)NCc1cccc(Cl)c1 [Example 7.1, 2-Benzoylamino-4-methylthiazole-5-carboxylic Acid 3-Chlorobenzylamide] |
| 216 to 217 °C | Cc1nc(NC(=O)c2ccccc2)sc1C(=O)NCc1cccc(F)c1 [Example 7.2, 2-Benzoylamino-4-methylthiazole-5-carboxylic Acid 3-Fluorobenzylamide] |
| 180 to 183 °C | Cc1nc(NC(=O)c2ccccc2)sc1C(=O)NCc1ccccc1F [Example 7.3, 2-Benzoylamino-4-methylthiazole-5-carboxylic Acid 2-Fluorobenzylamide] |
| 191 to 193 °C | Cc1nc(NC(=O)c2ccccc2)sc1C(=O)NCc1ccccc1Cl [Example 7.4, 2-Benzoylamino-4-methylthiazole-5-carboxylic acid 2-chlorobenzylamide] |
| 198 to 199 °C | Cc1nc(NC(=O)c2ccccc2)sc1C(=O)NCc1ccccc1C(F)(F)F [Example 7.5, 2-Benzoylamino-4-methylthiazole-5-carboxylic Acid 2-Trifluoromethylbenzylamide] |
| 206 to 208 °C | Cc1nc(NC(=O)c2ccccc2)sc1C(=O)NCc1ccc(F)cc1 [Example 7.6, 2-Benzoylamino-4-methylthiazole-5-carboxylic Acid 4-Fluorobenzylamide] |
